Measured values published in US8877778B2, “Benzofurane compounds” (Hoffmann-La Roche Inc., priority 2010, dated 2014).

Columns and labels:
human D2 receptor = human D2 receptor (Homo sapiens (Human), UniProt P14416); assay: Radioligand binding ([3H]-spiperone) to cloned receptors expressed in HEK-293 EBNA cells; conditions: HEK293 EBNA cell membranes expressing human D2
Protocol: (§1) HEK293 EBNA cells were transiently transfected with expression plasmids encoding for the human D2 or D3 or for the human 5-HT2A receptor, respectively. The cells were harvested 48 h post-transfection, washed three times with cold PBS and stored at −80° C. prior to use. The pellet was suspended in cold 50 mM Tris-HCl buffer comprising 10 mM EDTA (pH 7.4) and was homogenized with a Polytron (Kinematica AG, Basel, Switzerland) for 20-30 sec at 12.000 rpm. After centrifugation at 48.000×g for 30 min at 4° C., the pellet was resuspended in cold 10 mM Tris-HCl buffer comprising 0.1 mM EDTA (pH 7.4), homogenized, and centrifuged as above. This pellet was further resuspended in a smaller volume of ice cold 10 mM Tris-HCl buffer comprising 0.1 mM EDTA (pH 7.4) and homogenized with a Polytron for 20-30 sec at 12.000 rpm. The protein content of this homogenate was determined with the Bio-Rad (Bradford) Protein Assay (Biorad Laboratories GmbH, München, Germany) according to the instructions of the manufacturer using gamma globulin as the standard. This homogenate was stored at −80° C. in aliquots and thawed immediately prior to use.
(§2) Aliquots of membrane preparations were thawed at RT, resupended in assay buffer (D2, D3: 50 mM Tris-HCl, 120 mM NaCl, 5 mM MgCl2, 1 mM EDTA, 5 mM KCl, 1.5 mM CaCl2, pH=7.4; 5-HT2A: 50 mM Tris-HCl, 10 mM MgCl2, 1 mM EGTA, pH=7.4), homogenized with a Polytron for 20-30 sec at 12.000 rpm and adjusted to a final concentration of approximately 7.5 μg protein/well (D2, D3) and 15 μg protein/well (5-HT2A), respectively.
(§3) The binding affinity (Ki) of the compounds was determined using radioligand binding. Membranes were incubated in a total volume of 200 μl with a fixed concentration of radioligand (final concentration approximately 0.7 nM [^3H]-spiperone for D2, 0.5 nM [^3H]-spiperone for D3, and 1.1 nM [^3H]-ketanserin for 5-HT2A) and ten concentrations of test compound in ranging between 10 μM-0.1 nM for 1 h at RT. At the end of the incubation, the reaction mixtures were filtered on to unifilter 96-well white microplates with bonded GF/C filters (Packard BioScience, Zürich, Switzerland; preincubated for 1 h in 0.1% polyethylenimine (PEI) in assay buffer) with a Filtermate 196 harvester (Packard BioScience) and washed 3 times with cold assay buffer. The nonspecific binding was determined with equally composed reaction mixtures in the presence of 10 μM unlabelled spiperone. Per well 45 μl of Microscint 40 (Perkin Elmer, Schwerzenbach, Switzerland) was added, plates for sealed, shaken for 20 min and counted for 3 min on a Topcount Microplate Scintillation Counter (Can berra Packard SA, Zürich, Switzerland) with quenching correction.
(§4) The CPM value for each duplicate of a concentration of competing compound was averaged (y1), then the % specific binding was calculated according to the equation (((y1−non-specific)/(total binding−non-specific))×100). Graphs were plotted with the % specific binding using XLfit, a curve fitting program that iteratively plots the data using Levenberg-Marquardt algorithm. The single site competition analysis equation used was y=A+((B−A)/(1+((x/C)D))), where y is the % specific binding, A is the minimum y, B is the maximum y, C is the IC50, x is the log 10 of the concentration of the competing compound and D is the slope of the curve (the Hill Coefficient). […] The affinity constant (Ki) was calculated using the Cheng-Prusoff equation Ki=(IC50/1+([L]/Kd), where [L] is the concentration of radioligand and Kd is the dissociation constant of the radioligand at the receptor as determined by the saturation isotherm.

human D3 receptor = human D3 receptor (Homo sapiens (Human), UniProt P35462); assay: as above; conditions: HEK293 EBNA cell membranes expressing human D3
Sequence of human D3 receptor (P35462 whole entry): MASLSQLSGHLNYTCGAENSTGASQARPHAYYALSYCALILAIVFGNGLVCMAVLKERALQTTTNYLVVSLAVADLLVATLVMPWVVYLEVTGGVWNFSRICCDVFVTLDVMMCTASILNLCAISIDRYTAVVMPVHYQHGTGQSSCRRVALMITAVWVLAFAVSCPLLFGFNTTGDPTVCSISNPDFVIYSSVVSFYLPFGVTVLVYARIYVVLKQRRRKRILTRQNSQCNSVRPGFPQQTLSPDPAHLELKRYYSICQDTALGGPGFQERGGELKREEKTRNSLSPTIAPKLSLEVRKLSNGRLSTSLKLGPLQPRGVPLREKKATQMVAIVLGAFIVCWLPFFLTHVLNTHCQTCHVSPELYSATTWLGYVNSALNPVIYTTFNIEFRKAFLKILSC
Protocol: as §1, §2, §3, §4

human 5-HT2A receptor = human 5-HT2A receptor (Homo sapiens (Human), UniProt P28223); assay: Radioligand binding ([3H]-ketanserin) to cloned receptors expressed in HEK-293 EBNA cells; conditions: HEK293 EBNA cell membranes expressing human 5-HT2A
Sequence of human 5-HT2A receptor (P28223 whole entry): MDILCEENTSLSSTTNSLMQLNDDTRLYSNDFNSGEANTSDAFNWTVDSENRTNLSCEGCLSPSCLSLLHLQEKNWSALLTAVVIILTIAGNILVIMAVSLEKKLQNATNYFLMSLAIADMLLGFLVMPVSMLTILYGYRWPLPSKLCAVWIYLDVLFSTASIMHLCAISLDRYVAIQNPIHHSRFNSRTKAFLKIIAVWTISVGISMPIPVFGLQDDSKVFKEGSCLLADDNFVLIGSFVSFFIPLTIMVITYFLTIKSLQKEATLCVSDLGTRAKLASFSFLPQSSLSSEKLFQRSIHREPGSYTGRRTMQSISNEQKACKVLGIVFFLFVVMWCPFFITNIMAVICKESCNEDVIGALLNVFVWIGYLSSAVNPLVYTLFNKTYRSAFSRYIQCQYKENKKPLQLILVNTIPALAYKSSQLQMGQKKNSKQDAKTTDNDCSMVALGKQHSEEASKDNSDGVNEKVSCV
Protocol: as §1, §2, §3, §4

Sequence of human D2 receptor (P14416 whole entry): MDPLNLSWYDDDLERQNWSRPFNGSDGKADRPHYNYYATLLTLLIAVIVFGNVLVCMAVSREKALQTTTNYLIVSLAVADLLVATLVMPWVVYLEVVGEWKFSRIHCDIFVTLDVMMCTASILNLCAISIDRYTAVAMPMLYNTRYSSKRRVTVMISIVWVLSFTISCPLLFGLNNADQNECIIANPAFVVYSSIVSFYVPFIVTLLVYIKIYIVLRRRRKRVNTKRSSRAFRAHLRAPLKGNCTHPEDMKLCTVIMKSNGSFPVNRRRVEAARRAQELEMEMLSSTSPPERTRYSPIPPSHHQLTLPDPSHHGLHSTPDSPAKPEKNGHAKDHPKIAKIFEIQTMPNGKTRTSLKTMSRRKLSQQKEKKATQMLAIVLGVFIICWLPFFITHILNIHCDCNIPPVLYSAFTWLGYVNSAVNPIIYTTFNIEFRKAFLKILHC

SMILES	Ki (human D2 receptor) [nM]	Ki (human D3 receptor) [nM]	Ki (human 5-HT2A receptor) [nM]	melting point [°C]
O=C(Cc1ccc2c(c1)OCO2)N[C@H]1CC[C@H](CCN2CCC(c3cccc4c3CCO4)CC2)CC1 [Example 94, trans-2-Benzo[1,3]dioxol-5-yl-N-(4-{2-[4-(2,3-dihydro-benzofuran-4-yl)-piperidin-1-yl]-ethyl}-cyclohexyl)-acetamide]	721	3.65	45.3	209
O=C(N[C@H]1CC[C@H](CCN2CCC(c3cccc4c3CCO4)CC2)CC1)c1ccc2ncccc2c1 [Example 78, Quinoline-6-carboxylic acid trans-(4-{2-[4-(2,3-dihydro-benzofuran-4-yl)-piperidin-1-yl]-ethyl}-cyclohexyl)-amide]	3250	4.35	30.7	238
O=S(=O)(N[C@H]1CC[C@H](CCN2CCC(c3cccc4c3CCO4)CC2)CC1)c1ccc(F)cc1 [Example 50, trans-N-(4-{2-[4-(2,3-Dihydro-benzofuran-4-yl)-piperidin-1-yl]-ethyl}-cyclohexyl)-4-fluoro-benzenesulfonamide]	105	4.1	86.8	134
CC(C)CC(=O)N[C@H]1CC[C@H](CCN2CCC(c3cccc4c3CCO4)CC2)CC1 [Example 24, trans-N-(4-{2-[4-(2,3-Dihydro-benzofuran-4-yl)-piperidin-1-yl]-ethyl}-cyclohexyl)-3-methyl-butyramide]	213	5.2	31.1	197
CC(C)(C)C(=O)N[C@H]1CC[C@H](CCN2CCC(c3cccc4c3CCO4)CC2)CC1 [Example 58, trans-N-(4-{2-[4-(2,3-Dihydro-benzofuran-4-yl)-piperidin-1-yl]ethyl}-cyclohexyl)-2,2-dimethyl-propionamide]	378	65.1	50.6	192
O=C(C[C@@H]1CCCO1)N[C@H]1CC[C@H](CCN2CCC(c3cccc4c3CCO4)CC2)CC1 [Example 32, trans-N-(4-{2-[4-(2,3-Dihydro-benzofuran-4-yl)-piperidin-1-yl]-ethyl}-cyclohexyl)-(S)-2-(tetrahydro-furan-2-yl)-acetamide]	–	–	–	192
O=C(N[C@H]1CC[C@H](CCN2CCC(c3cccc4c3CCO4)CC2)CC1)c1ccc(-c2ccccc2)cc1 [Example 91, Biphenyl-4-carboxylic acid trans-(4-{2-[4-(2,3-dihydro-benzofuran-4-yl)-piperidin-1-yl]-ethyl}-cyclohexyl)-amide]	501	7.81	28.1	241
O=C(CC1CCC1)N[C@H]1CC[C@H](CCN2CCC(c3cccc4c3CCO4)CC2)CC1 [Example 60, trans-2-Cyclobutyl-N-(4-{2-[4-(2,3-dihydro-benzofuran-4-yl)-piperidin-1-yl]-ethyl}-cyclohexyl)-acetamide]	301	6.1	44.4	196
N#Cc1ccc(C(=O)N[C@H]2CC[C@H](CCN3CCC(c4cccc5c4CCO5)CC3)CC2)cc1 [Example 45, trans-4-Cyano-N-(4-{2-[4-(2,3-dihydro-benzofuran-4-yl)-piperidin-1-yl]-ethyl}-cyclohexyl)-benzamide]	192	7.9	22.2	230
O=C(CC1CCCO1)N[C@H]1CC[C@H](CCN2CCC(c3cccc4c3CCO4)CC2)CC1 (mixture of isomers) [Example 25, trans-N-(4-{2-[4-(2,3-Dihydro-benzofuran-4-yl)-piperidin-1-yl]-ethyl}-cyclohexyl)-rac-2-(tetrahydro-furan-2-yl)-acetamide]	–	–	–	192
O=C(C[C@@H]1COCCO1)N[C@H]1CC[C@H](CCN2CCC(c3cccc4c3CCO4)CC2)CC1 [Example 21, trans-N-(4-{2-[4-(2,3-Dihydro-benzofuran-4-yl)-piperidin-1-yl]-ethyl}-cyclohexyl)-(R)-2-[1,4]dioxan-2-yl-acetamide]	–	–	27.9	190
CCC(C)C(=O)N[C@H]1CC[C@H](CCN2CCC(c3cccc4c3CCO4)CC2)CC1 (mixture of isomers) [Example 62, trans-N-(4-{2-[4-(2,3-Dihydro-benzofuran-4-yl)-piperidin-1-yl]-ethyl}-cyclohexyl)-(RS)-2-methyl-butyramide]	1200	–	64.4	210
O=C(N[C@H]1CC[C@H](CCN2CCC(c3cccc4c3CCO4)CC2)CC1)C1(O)CCC1 [Example 39, 1-Hydroxy-cyclobutanecarboxylic acid trans-(4-{2-[4-(2,3-dihydro-benzofuran-4-yl)-piperidin-1-yl]-ethyl}-cyclohexyl)-amide]	306	27.3	12.3	–
O=C(N[C@H]1CC[C@H](CCN2CCC(c3cccc4c3CCO4)CC2)CC1)C(O)C(F)(F)F (mixture of isomers) [Example 37, trans-(RS)—N-(4-{2-[4-(2,3-Dihydro-benzofuran-4-yl)-piperidin-1-yl]-ethyl}-cyclohexyl)-3,3,3-trifluoro-2-hydroxy-propionamide]	241	9.2	–	179
O=C(CC1COCCO1)N[C@H]1CC[C@H](CCN2CCC(c3cccc4occc34)CC2)CC1 (mixture of isomers) [Example 12, trans-N-{4-[2-(4-Benzofuran-4-yl-piperidin-1-yl)-ethyl]-cyclohexyl}-rac-2-[1,4]dioxan-2-yl-acetamide]	219	5.4	–	165
O=C(N[C@H]1CC[C@H](CCN2CCC(c3cccc4c3CCO4)CC2)CC1)C1CCCO1 (mixture of isomers) [Example 53, (RS)-Tetrahydro-furan-2-carboxylic acid trans-(4-{2-[4-(2,3-dihydro-benzofuran-4-yl)-piperidin-1-yl]-ethyl}-cyclohexyl)-amide]	–	41.5	13.1	160
O=C(N[C@H]1CC[C@H](CCN2CCC(c3cccc4c3CCO4)CC2)CC1)C1CCCOC1 (mixture of isomers) [Example 54, (RS)-Tetrahydro-pyran-3-carboxylic acid trans-(4-{2-[4-(2,3-dihydro-benzofuran-4-yl)-piperidin-1-yl]-ethyl}-cyclohexyl)-amide]	633	–	21.3	222
O=C(CC1COCCO1)N[C@H]1CC[C@H](CCN2CCC(c3cccc4c3CCO4)CC2)CC1 (mixture of isomers) [Example 16, trans-N-(4-{2-[4-(2,3-Dihydro-benzofuran-4-yl)-piperidin-1-yl]-ethyl}-cyclohexyl)-rac-2-[1,4]dioxan-2-yl-acetamide]	–	–	22.3	192
O=C(C[C@H]1COCCO1)N[C@H]1CC[C@H](CCN2CCC(c3cccc4c3CCO4)CC2)CC1 [Example 22, trans-N-(4-{2-[4-(2,3-Dihydro-benzofuran-4-yl)-piperidin-1-yl]-ethyl}-cyclohexyl)-(8)-2-[1,4]dioxan-2-yl-acetamide]	–	–	19.4	190
O=C(C[C@H]1CCCO1)N[C@H]1CC[C@H](CCN2CCC(c3cccc4c3CCO4)CC2)CC1 [Example 31, trans-N-(4-{2-[4-(2,3-Dihydro-benzofuran-4-yl)-piperidin-1-yl]-ethyl}-cyclohexyl)-(R)-2-(tetrahydro-furan-2-yl)-acetamide]	–	–	–	192
